ChEMBL document CHEMBL4325924, “Discovery of Orally Bioavailable and Liver-Targeted Hypoxia-Inducible Factor Prolyl Hydroxylase (HIF-PHD) Inhibitors for the Treatment of Anemia” (ACS Med Chem Lett, 2018)

Key:
[1] = Oral bioavailability in Beagle dog at 1 mg/kg administered via gavage by LC-MS/MS analysis; format: ADME, organism-based, Canis lupus familiaris; settings: in vivo
[2] = Half life in Wistar Han rat at 1 mg/kg, iv or 2 mg/kg, po administered via gavage by LC-MS/MS analysis; format: ADME, organism-based; settings: in vivo
[3] = Plasma clearance in Beagle dog at 0.175 mg/kg, iv or 1 mg/kg, po administered via gavage by LC-MS/MS analysis; format: ADME, organism-based, Canis lupus familiaris
[4] = Half life in Beagle dog at 0.175 mg/kg, iv or 1 mg/kg, po administered via gavage by LC-MS/MS analysis; format: ADME, organism-based, Canis lupus familiaris; settings: in vivo
[5] = Volume of distribution in Wistar Han rat at 1 mg/kg, iv or 2 mg/kg, po administered via gavage by LC-MS/MS analysis; format: ADME, organism-based; settings: in vivo
[6] = Plasma clearance in Wistar Han rat at 1 mg/kg, iv or 2 mg/kg, po administered via gavage by LC-MS/MS analysis; format: ADME, organism-based
[7] = Oral bioavailability in Wistar Han rat at 2 mg/kg administered via gavage by LC-MS/MS analysis; format: ADME, organism-based; settings: in vivo
[8] = Volume of distribution in Beagle dog at 0.175 mg/kg, iv or 1 mg/kg, po administered via gavage by LC-MS/MS analysis; format: ADME, organism-based, Canis lupus familiaris; settings: in vivo

Question: With `O=C(O)CNC(=O)c1c(O)c2c(n(Cc3ccc(C(F)(F)F)cc3)c1=O)COC2` as the compound, how does the bioavailability [1] read?
Answer: 25%

Question: What about the half-life [2] of the same compound?
Answer: 7.3 h

Question: And the clearance [3]?
Answer: 17 mL/min/kg

Question: And the half-life [4]?
Answer: 6.2 h

Question: And the Vd [5]?
Answer: 3.1 L/kg

Question: What about the clearance [6] of the same compound?
Answer: 11 mL/min/kg

Question: What about the bioavailability [7] of the same compound?
Answer: 39%

Question: And the Vd [8]?
Answer: 5.6 L/kg
